Measured values published in PMC4977052, “On the Utility of ToxCast™ and ToxPi as Methods for Identifying New Obesogens” (Environmental Health Perspectives, 2016).
Like-named read-outs stand apart in the source and are kept apart here.

Tests used:
GAL4-mPPARγ = biological target: T1, GAL4-mPPARγ (Mus musculus, UniProt P37238); assay: GAL4-mPPARγ activation, transient transfection luciferase reporter in COS7 cells; format: cell-based; conditions: for Activation of GAL4-PPARγ (text): COS7, 100 μM through 0.137 μM; for EC50: COS7, ligands 24 hr, nonlinear regression variable slope, spirodiclofen constrained at top dose, read-out: PPARγ agonists: EC50, Fig 1A / Fig 4A; for PPARγ agonists: EC10, Fig 1A / Fig 4A: COS7, computed from EC50 in GraphPad Quick Calc
T1 construct: expressed in transfected cells; host or cells: COS7

PPARγ = conditions: cited from earlier work; for AC50: PPARγ, NA = not active; for PPARγ agonists: EC10, ATG: AC10, ToxCast 2014 release; for EC50: gain AC50, ToxCast 2014 release, read-out: PPARγ agonists: EC50, ATG
[1] = tested on: mouse bone marrow-derived mesenchymal stem cells (mBMSCs); format: cell-based; conditions: for Induction of adipogenesis in mBMSCs, doses: lipid accumulation, Nile red/Hoechst; for Induction of adipogenesis in mBMSCs, doses / Adipogenic gene expression (Fabp4, Fsp27, Lpl), QPCR: Figure 2B; for Adipogenic gene expression (Fabp4, Fsp27, Lpl), QPCR: mBMSCs
Procedure: A total of 8 × 10^4 cells/well mouse bone marrow-derived mesenchymal stem cells (mBMSCs) (OriCell™) were seeded in 12-well plates in basic medium: high-glucose DMEM (Hyclone) containing 10% calf bovine serum (Premium Select, Atlanta Biologicals), 100 IU/mL penicillin, 100 μg/mL streptomycin, and 1 mM sodium pyruvate. mBMSCs were induced to differentiate in differentiation media (low glucose αMEM containing 15% fetal bovine serum (Premium Select, Atlanta Biologicals), 100 IU/mL penicillin, 100 μg/mL streptomycin and 2 mM L-glutamine) with adipogenic cocktail (500 μM isometylbutylxanthine, 1 μM dexamethasone, 5 μg/mL insulin) and either 500 nM ROSI, 50 nM TBT or ToxCast™ chemicals (as noted for 3T3-L1 cells) for 14 days, replacing the media every 3 days.
Cells were either fixed in 3.7% formaldehyde in phosphate-buffered saline (PBS) for 30 min at room temperature (RT) for lipid quantitation, or homogenized in TriPure (Roche, Mannheim, Germany) for gene expression analysis. For lipid quantitation, fixed cells were washed twice with PBS and maintained in PBS overnight at 4°C to release residual phenol red. Background of cells were measured prior to staining. Cells were stained with 1 μg/mL Nile red (CAS No. 7385-67-3) (to detect lipid accumulation) and 1 μg/mL Hoechst 33342 (ThermoFisher Scientific) (to detect nuclei as a surrogate for cell number) in PBS for 15 min in the dark at RT and washed twice with PBS. […] Background values of Hoechst and Nile red were subtracted from the RFUs after staining and the ratio RFUNile Red:RFUHoechst was calculated. Data are represented as mean ± SEM. Total RNA was isolated using TriPure (Roche) as recommended by the manufacturer. Reverse transcription and quantitative real-time RT-PCR (QPCR) were performed using Transcriptor RT and SYBR® Green Master Mix (Roche). cDNA was quantitated in a LightCycler® 480 System (Roche Diagnostics, Basel, Switzerland) using primer sets listed in Table S4. Each primer set amplified a single band as determined by gel electrophoresis and melting curve analysis. QPCR data were analyzed using the 2^ΔΔCt method ([Livak and Schmittgen 2001]) relative to ribosomal protein 36b4, normalizing to 0.1% DMSO vehicle. Error bars represent the SEM from four to six biological replicates calculated using standard propagation of error ([Bevington and Robinson 2003]).

[2] = ref Filer et al. 2014, read-out: ATG Agonist AC50, 2014 Release
[3] = ref Knudsen et al. 2011, read-out: ATG Agonist AC50, 2011 Release
[4] = Cos-7 transient transfection, PPARγ activation or antagonism assays (Table 1, Table S6)

T1 sequence (P37238 with tags, fused parts or gaps limits assumed): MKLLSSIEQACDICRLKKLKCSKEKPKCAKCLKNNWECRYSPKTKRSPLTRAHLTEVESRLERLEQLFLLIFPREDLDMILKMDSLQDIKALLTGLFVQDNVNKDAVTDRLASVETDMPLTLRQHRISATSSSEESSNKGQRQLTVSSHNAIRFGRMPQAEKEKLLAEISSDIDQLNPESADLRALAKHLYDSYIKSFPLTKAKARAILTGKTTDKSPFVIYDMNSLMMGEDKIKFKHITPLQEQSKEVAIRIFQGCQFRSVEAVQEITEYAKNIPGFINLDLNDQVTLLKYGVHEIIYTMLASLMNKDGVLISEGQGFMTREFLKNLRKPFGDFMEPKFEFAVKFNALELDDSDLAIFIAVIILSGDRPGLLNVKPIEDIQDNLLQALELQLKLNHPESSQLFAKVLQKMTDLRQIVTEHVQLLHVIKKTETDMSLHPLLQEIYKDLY

Row | SMILES | Activation of GAL4-PPARγ (text) (GAL4-mPPARγ) | AC50 (PPARγ; [2]) [µM] | AC50 (PPARγ; [3]) [µM] | Activation COS7 (result in words), ToxCast PPARγ list (GAL4-mPPARγ) | Activation of GAL4-PPARγ (text) (GAL4-mPPARγ; listed as quinoxyfen) | EC50 (GAL4-mPPARγ) [µM] | PPARγ agonists: EC10, Fig 1A / Fig 4A (GAL4-mPPARγ) [µM] | AC50 (GAL4-mPPARγ; Cos-7 transient transfection) [µM] | Activation COS7 (result in words), ToxCast PPARγ list (GAL4-mPPARγ; [4]) | Activation COS7 (result in words), ToxPi chemicals (GAL4-mPPARγ; Cos-7 transient transfection, PPARγ or RXRα activation assays (Table 2)) | Adipogenic differentiation of mBMSCs (result in words) ([1]; 14 days, Figure 7) | PPARγ agonists: EC10, ATG (PPARγ; ref Filer et al. 2014) [µM] | EC50 (PPARγ; ref Filer et al. 2014) [µM] | AC50 (GAL4-mPPARγ; read-out: Activation AC50 (PPARγ activators), Cos-7 transient transfection) [µM] | Induction of adipogenesis in mBMSCs, doses ([1]; 14 days) | Adipogenic gene expression (Fabp4, Fsp27, Lpl), QPCR [1] | Lipid accumulation: TOXIC mark in place of bar [1] | Concentration toxic to mBMSCs ([1]; mouse, 14 days) [µM]
1 | O=[N+]([O-])c1cc(C(F)(F)F)c(Cl)c([N+](=O)[O-])c1Nc1ncc(C(F)(F)F)cc1Cl [Fluazinam] | did not activate PPARγ | 1.2 | 0.51 |  |  |  |  |  |  |  |  |  |  |  |  |  |  | 
2 | Fc1ccc(Oc2ccnc3cc(Cl)cc(Cl)c23)cc1 [Quinoxyfen] | weakly active at 100 μM and 33 μM doses | 5.1 | 6.6 | Inactive | activated PPARγ | 33.4 | 14.24 | 33.4 | PPARγ Activator | PPARγ activator | could differentiate these uncommitted stem cells into adipocytes | 3.98 | 5.12 |  |  |  |  | 
3 | CCC(C)(C)C(=O)OC1=C(c2ccc(Cl)cc2Cl)C(=O)OC12CCCCC2 [Spirodiclofen] | activated GAL-PPARγ | 1.9 | 3.6 |  |  | 12.8 | 7.27 |  | PPARγ activator |  |  | 0.10 | 1.85 | 12.8 | induced adipogenesis at 10 and 20 μM | increases |  | 
4 | CCC(C)(NC(=O)c1cc(Cl)c(C)c(Cl)c1)C(=O)CCl (stereo not shown) [Zoxamide] | activated GAL-PPARγ | 1.3 | 1.5 |  |  | 1.31 | 0.31 | 1.31 | PPARγ activator |  |  | 0.18 | 1.27 |  | induced differentiation at 2 and 10 μM | increases | TOXIC | ≥ 20
